In patent publication US9233127B2, “Compositions and methods for CXCR4 signaling and umbilical cord blood stem cell engraftment” (University of Virginia Patent Foundation, priority 2012, dated 2016):

Tested on: CD34+ cells
Assay: Transwell chemotaxis of CD34+ cells to an SDF-1 gradient (priming)
Format: cell-based, human
Description: FIG. 11A-B—Effect of SLP and its components on chemotaxis of CD34^+ cells. Panel A: Chemotaxis of BM CD34^+ cells towards medium alone (control), SDF-1 low (10 ng/mL) alone, SLP (combined SLP from three patients), SDF-1 low+SLP, and SDF-1 high (300 ng/mL). Data are pooled from quadruplicate samples from three independent experiments. *p<0.00001. Panel B: Chemotaxis of UCB CD34^+ cells to medium alone (control), SDF-1 low (10 ng/mL) alone and SDF-1 low (10 ng/mL)+uPAR (1 μg/mL) or +ICAM (1 μg/mL) or +VCAM (1 μg/mL) or +FN (2 μg/mL), or +FG (4 μg/mL) or +C3a (1 μg/mL). Data are pooled from quadruplicate samples from three independent experiments. * p<0.00001.
Chemotaxis of CD34^+ cells to medium alone (control), C3a (1 μg/ml), C3adesArg (1 μg/ml), SDF-1 low (10 ng/mL) alone, and SDF-1 low (10 ng/mL)+C3a low (0.1 μg/ml) or SDF-1 low (10 ng/mL)+C3a (1 μg/ml) or SDF-1 low (10 ng/mL)+C3adesArg (1 μg/ml). Data are pooled from quadruplicate samples from three independent experiments.* p<0.00001.
FIG. 13A-B—Chemotaxis of cells to an SDF-1 gradient is lipid raft-dependent. Panel A: Chemotaxis of CD34^+ cells to medium alone (control), SDF-1 (300 ng/mL) and SDF-1 (300 ng/mL) after preincubation for 1 hr with Amphotericin (10 μg/mL) or Nystatin (50 μg/mL). Cells were collected after chemotaxis from the lower chambers and plated in a clonogenic assay. The number of CFU-GM and BFU-E colonies formed by harvested cells is shown as a percentage of control values. Data are pooled from quadruplicate samples from three independent experiments. *p<0.0001. Panel B: Chemotaxis of CD34^+ cells towards medium alone (control), SDF-1 low (10 ng/mL) alone, or SDF-1 low with cells exposed to C3a (1 μg/mL). Cells pretreated before chemotaxis for 1 hr with MβCD (2.5 mM) are shown as gray bars. Data are pooled from quadruplicate samples from three independent experiments. * p<0.00001.
HSPCs from the mPB engraft faster compared to HSPCs aspirated from BM. To test the hypothesis that mPB-derived HSPCs are primed in their responses to SDF-1 by molecules present in SLP, we pooled together SLP from three patients and exposed BM or UCB CD34^+ cells to the SLP during chemotaxis to a low (10 ng/mL) dose of SDF-1.
To address this issue further, the formation of rafts in the cells was perturbed by MβCD, which depletes cholesterol from the cell membrane. The CD34^+ cells were pre-incubated with MβCD for 1 hr. Chemotaxis to a low dose of SDF-1 in the presence of C3a (in the upper chambers) was evaluated.

## C3a: 77 amino acid residue protein derived from the human complement C3a precursor; SEQ ID NO:1
SDF-1 low 10 ng/mL, C3a or C3adesArg 1 μg/ml
  chemotaxis of human CD34+ cells to low-threshold doses of SDF-1: potentiate (prime) chemotaxis
No SDF-1, 1 μg/ml
  chemoattraction of CD34+ cells by the C3 cleavage fragment on its own: neither C3 cleavage fragments chemoattract
